Holding throughout (format): cell-based
The target in experiment [1] is T1, pERK1/2 (Thr202/Tyr204), PANC-1 (KRAS G121D) (Homo sapiens, UniProt P01116, G12D).
T1 construct: pERK1/2 HTRF read-out
The experiment in a line: Assay of intracellular pERK1/2 (Thr202/Tyr204) phosphorylation in PANC-1 cells (KRAS G12D). Particulars: pERK1/2, 2 days, read-out: PANC-1 (KRAS G12D) IC50. In a few lines: (§1)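 Cells (10000-12000/well) exposed to 3-fold compound dilutions for 2 days at 37 °C, then lysed; pERK1/2 (Thr202/Tyr204) measured by HTRF with d2 and cryptate antibodies, 665/615 nm ratio.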

In experiment [2] the target is T2, pERK1/2 (Thr202/Tyr204), NCI-1H441 (KRAS G12V) (Homo sapiens, UniProt P01116, G12V).
T2 construct: pERK1/2 HTRF read-out
The experiment in a line: Assay of intracellular pERK1/2 (Thr202/Tyr204) phosphorylation in NCI-H441 cells (KRAS G12V). The settings on record: pERK1/2, 2 days, read-out: NCI-H441 (KRAS G12V) IC50. In a few lines:
as §1

The target in experiment [3] is T3, pERK1/2 (Thr202/Tyr204), NCI-1H358 (KRAS G12C) (Homo sapiens, UniProt P01116, G12C).
T3 construct: pERK1/2 HTRF read-out
The experiment in a line: Assay of intracellular pERK1/2 (Thr202/Tyr204) phosphorylation in NCI-H358 cells (KRAS G12C). Particulars: pERK1/2, 2 days, read-out: NCI-H358 (KRAS G12C) IC50. In a few lines: as §1

pIC50: −log10 of the molar value.

T2 sequence (P01116 1-188 isoform P01116-2 G12V): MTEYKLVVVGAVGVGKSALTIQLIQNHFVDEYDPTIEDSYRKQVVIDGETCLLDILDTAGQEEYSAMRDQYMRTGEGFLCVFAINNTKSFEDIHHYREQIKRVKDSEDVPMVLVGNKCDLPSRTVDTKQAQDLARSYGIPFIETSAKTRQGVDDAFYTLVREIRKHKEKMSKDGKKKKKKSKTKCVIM
T1 sequence (P01116 1-188 isoform P01116-2 G12D): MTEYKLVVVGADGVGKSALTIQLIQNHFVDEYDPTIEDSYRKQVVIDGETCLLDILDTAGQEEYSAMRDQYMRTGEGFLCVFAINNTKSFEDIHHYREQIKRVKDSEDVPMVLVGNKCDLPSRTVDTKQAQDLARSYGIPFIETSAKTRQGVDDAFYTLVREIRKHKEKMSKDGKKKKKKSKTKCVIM
T3 sequence (P01116 1-188 isoform P01116-2 G12C): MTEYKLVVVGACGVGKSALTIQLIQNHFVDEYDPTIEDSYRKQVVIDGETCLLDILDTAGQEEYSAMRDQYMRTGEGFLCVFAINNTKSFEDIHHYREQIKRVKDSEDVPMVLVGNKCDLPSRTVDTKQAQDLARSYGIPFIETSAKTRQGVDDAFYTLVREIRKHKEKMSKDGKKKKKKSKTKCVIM

Turning to `[2H]C1([2H])CN(C(C)c2cccnc2N)c2nc(OC[C@@]34CCCN3C[C@H](F)C4)nc3c(F)c(-c4cc(N)c(F)c(C)c4C(F)(F)F)nc(c23)O1` (single isomer, unassigned) [Compound 184, 3-((R or S)-1-(5-(5-amino-4-fluoro-3-methyl-2-(trifluoromethyl)phenyl)-4-fluoro-2-(((2R,7aS)-2-fluorotetrahydro-1H-pyrrolizin-7a(5H)-yl)methoxy)-8,9-dihydro-10H-7-oxa-1,3,6,10-tetraazacyclohepta[de]naphthalen-10-yl-8,8-d2)ethyl)pyridin-2-amine], the negative logarithm of the IC50 (pIC50) in experiment [1] was 7.55; in experiment [2], 7.89; in experiment [3], 8.30.

Take `[2H]C1([2H])Oc2nc(-c3cc(N)c(F)c(C)c3C(F)(F)F)c(F)c3nc(OC[C@@]45CCCN4C[C@H](F)C5)nc(c23)N(C(C)c2cccnc2N)C1([2H])[2H]` (single isomer, unassigned) [Compound 199, 3-((R or S)-1-(5-(5-amino-4-fluoro-3-methyl-2-(trifluoromethyl)phenyl)-4-fluoro-2-(((2R,7aS)-2-fluorotetrahydro-1H-pyrrolizin-7a(5H)-yl)methoxy)-8,9-dihydro-10H-7-oxa-1,3,6,10-tetraazacyclohepta[de]naphthalen-10-yl-8,8,9,9-d4)ethyl)pyridin-2-amine]: the pIC50 in experiment [1] is 9.00; in experiment [2], 9.70; in experiment [3], 9.70.

Consider `[2H]C1([2H])Oc2nc(-c3cc(N)c(F)c(C)c3C(F)(F)F)c(F)c3nc(OC[C@@]45CCCN4C[C@H](F)C5)nc(c23)N(C(C)c2cccnc2N)C1([2H])[2H]` (single isomer, unassigned) [Compound 200, 3-((R or S)-1-(5-(5-amino-4-fluoro-3-methyl-2-(trifluoromethyl)phenyl)-4-fluoro-2-(((2R,7aS)-2-fluorotetrahydro-1H-pyrrolizin-7a(5H)-yl)methoxy)-8,9-dihydro-10H-7-oxa-1,3,6,10-tetraazacyclohepta[de]naphthalen-10-yl-8,8,9,9-d4)ethyl)pyridin-2-amine], for which the figures for the pIC50 in experiment [1], in experiment [2] and in experiment [3] were 7.20, 8.00 and 8.15, respectively.

With `[2H]C1([2H])Oc2nc(-c3cc(N)c(F)c(C)c3C(F)(F)F)c(F)c3nc(OC[C@@H]4C[C@@H](F)CN4C)nc(c23)N(C(C)c2cccnc2N)C1([2H])[2H]` (single isomer, unassigned) [Compound 202, 3-((R or S)-1-(5-(5-amino-4-fluoro-3-methyl-2-(trifluoromethyl)phenyl)-4-fluoro-2-(((2S,4R)-4-fluoro-1-methylpyrrolidin-2-yl)methoxy)-8,9-dihydro-10H-7-oxa-1,3,6,10-tetraazacyclohepta[de]naphthalen-10-yl-8,8,9,9-d4)ethyl)pyridin-2-amine], the pIC50 in experiment [1] was 7.89; in experiment [2], 9.00; in experiment [3], 9.40.

Consider `[2H]C1([2H])Oc2nc(-c3cc(N)c(F)c(C)c3C(F)(F)F)c(F)c3nc(OC[C@@H]4C[C@@H](F)CN4C)nc(c23)N(C(C)c2cccnc2N)C1([2H])[2H]` (single isomer, unassigned) [Compound 203, 3-((R or S)-1-(5-(5-amino-4-fluoro-3-methyl-2-(trifluoromethyl)phenyl)-4-fluoro-2-(((2S,4R)-4-fluoro-1-methylpyrrolidin-2-yl)methoxy)-8,9-dihydro-10H-7-oxa-1,3,6,10-tetraazacyclohepta[de]naphthalen-10-yl-8,8,9,9-d4)ethyl)pyridin-2-amine], for which the pIC50 is below 7.00 in experiment [1], below 7.00 in experiment [2] and 7.06 in experiment [3].

Consider `[2H]C1([2H])Oc2nc(-c3cc(N)c(F)c(Cl)c3C(F)(F)F)c(F)c3nc(OC[C@@]45CCCN4C[C@H](F)C5)nc(c23)N(C(C)c2cccnc2N)C1([2H])[2H]` (single isomer, unassigned) [Compound 206, 3-((R or S)-1-(5-(5-amino-3-chloro-4-fluoro-2-(trifluoromethyl)phenyl)-4-fluoro-2-(((2R,7aS)-2-fluorotetrahydro-1H-pyrrolizin-7a(5H)-yl)methoxy)-8,9-dihydro-10H-7-oxa-1,3,6,10-tetraazacyclohepta[de]naphthalen-10-yl-8,8,9,9-d4)ethyl)pyridin-2-amine], for which the negative-log IC50 (pIC50) in experiment [1] was 9.10; in experiment [2], 9.52; in experiment [3], 9.70.

As for `[2H]C1([2H])Oc2nc(-c3cc(N)c(F)c(Cl)c3C(F)(F)F)c(F)c3nc(OC[C@@]45CCCN4C[C@H](F)C5)nc(c23)N(C(C)c2cccnc2N)C1([2H])[2H]` (single isomer, unassigned) [Compound 207, 3-((R or S)-1-(5-(5-amino-3-chloro-4-fluoro-2-(trifluoromethyl)phenyl)-4-fluoro-2-(((2R,7aS)-2-fluorotetrahydro-1H-pyrrolizin-7a(5H)-yl)methoxy)-8,9-dihydro-10H-7-oxa-1,3,6,10-tetraazacyclohepta[de]naphthalen-10-yl-8,8,9,9-d4)ethyl)pyridin-2-amine], the pIC50 in experiment [1] was below 7.00; in experiment [2] it was 7.48; in experiment [3], 8.05.

As to `[2H]C1([2H])Oc2nc(-c3cc(N)c(F)c(Cl)c3C(F)(F)F)c(F)c3nc(OC[C@@H]4C[C@@H](F)CN4C)nc(c23)N(C(C)c2cccnc2N)C1([2H])[2H]` (single isomer, unassigned) [Compound 208, 3-((R or S)-1-(5-(5-amino-3-chloro-4-fluoro-2-(trifluoromethyl)phenyl)-4-fluoro-2-(((2S,4R)-4-fluoro-1-methylpyrrolidin-2-yl)methoxy)-8,9-dihydro-10H-7-oxa-1,3,6,10-tetraazacyclohepta[de]naphthalen-10-yl-8,8,9,9-d4)ethyl)pyridin-2-amine], the negative-log IC50 (pIC50) in experiment [1] is 8.00; in experiment [2] it was 9.00; in experiment [3], 9.40.

With `[2H]C1([2H])Oc2nc(-c3cc(N)c(F)c(Cl)c3C(F)(F)F)c(F)c3nc(OC[C@@H]4C[C@@H](F)CN4C)nc(c23)N(C(C)c2cccnc2N)C1([2H])[2H]` (single isomer, unassigned) [Compound 209, 3-((R or S)-1-(5-(5-amino-3-chloro-4-fluoro-2-(trifluoromethyl)phenyl)-4-fluoro-2-(((2S,4R)-4-fluoro-1-methylpyrrolidin-2-yl)methoxy)-8,9-dihydro-10H-7-oxa-1,3,6,10-tetraazacyclohepta[de]naphthalen-10-yl-8,8,9,9-d4)ethyl)pyridin-2-amine], the negative-log IC50 (pIC50) in experiment [1] was below 7.00; in experiment [2] it was 7.35; in experiment [3], 7.89.

With `CCC(c1cccnc1N)N1CCOc2nc(-c3cc(N)c(F)c(C)c3C(F)(F)F)c(F)c3nc(OC[C@@]45CCCN4C[C@H](F)C5)nc1c23` (single isomer, unassigned) [Compound 212, 3-((R or S)-1-(5-(5-amino-4-fluoro-3-methyl-2-(trifluoromethyl)phenyl)-4-fluoro-2-(((2R,7aS)-2-fluorotetrahydro-1H-pyrrolizin-7a(5H)-yl)methoxy)-8,9-dihydro-10H-7-oxa-1,3,6,10-tetraazacyclohepta[de]naphthalen-10-yl)propyl)pyridin-2-amine], the pIC50 in experiment [1] is 8.22; in experiment [2], 9.22; in experiment [3], 9.52.

`CC[C@@H](c1cccnc1N)N1CCOc2nc(-c3cc(N)c(F)c(C)c3C(F)(F)F)c(F)c3nc(OC[C@@]45CCCN4C[C@H](F)C5)nc1c23` (single isomer, unassigned) [Compound 213, 3-((R or S)-1-(5-(5-amino-4-fluoro-3-methyl-2-(trifluoromethyl)phenyl)-4-fluoro-2-(((2R,7aS)-2-fluorotetrahydro-1H-pyrrolizin-7a(5H)-yl)methoxy)-8,9-dihydro-10H-7-oxa-1,3,6,10-tetraazacyclohepta[de]napthalen-10-yl)propyl)pyridin-2-amine]: the figures for the negative logarithm of the IC50 (pIC50) in experiment [1], in experiment [2] and in experiment [3] were below 7.00, 7.74 and 7.89, respectively.

As for `CCC(c1cccnc1N)N1CCOc2nc(-c3cc(N)c(F)c(Cl)c3C(F)(F)F)c(F)c3nc(OC[C@@]45CCCN4C[C@H](F)C5)nc1c23` (single isomer, unassigned) [Compound 214, 3-((R or S)-1-(5-(5-amino-3-chloro-4-fluoro-2-(trifluoromethyl)phenyl)-4-fluoro-2-(((2R,7aS)-2-fluorotetrahydro-1H-pyrrolizin-7a(5H)-yl)methoxy)-8,9-dihydro-10H-7-oxa-1,3,6,10-tetraazacyclohepta[de]naphthalen-10-yl)propyl)pyridin-2-amine], the results for the pIC50 in experiment [1], in experiment [2] and in experiment [3] were 8.40, 9.52 and 9.70, respectively.

Take `CCC(c1cccnc1N)N1CCOc2nc(-c3cc(N)c(F)c(Cl)c3C(F)(F)F)c(F)c3nc(OC[C@@]45CCCN4C[C@H](F)C5)nc1c23` (single isomer, unassigned) [Compound 215, 3-((R or S)-1-(5-(5-amino-3-chloro-4-fluoro-2-(trifluoromethyl)phenyl)-4-fluoro-2-(((2R,7aS)-2-fluorotetrahydro-1H-pyrrolizin-7a(5H)-yl)methoxy)-8,9-dihydro-10H-7-oxa-1,3,6,10-tetraazacyclohepta[de]naphthalen-10-yl)propyl)pyridin-2-amine]: the pIC50 is below 7.00 in experiment [1], 7.44 in experiment [2] and 7.68 in experiment [3].
